Laboratory results taken from patent publication US20220390438A1, “Identification and Characterisation of Herbicides and Plant Growth Regulators” (priority 2019, published 2022).

Experiments:
[1] = test system: wild type Marchantia plants; assay: Lethal concentration determination: Marchantia spores plated on Johnson's medium agar supplemented with herbicide, 14-day old sporelings; format: in vivo, Marchantia polymorpha
Experimental: A lethal concentration of the herbicide hit was determined in the condition of the mutagenesis concentration. 20000 Marchantia spores were plated in 90 mm Petri dishes containing 25 mL of Johnson's medium containing 1.4% agar and supplemented with a range of herbicide hit concentrations ranging from 1 to 50000 nM. The lethal concentration was defined as the minimum concentration of herbicide hit sufficient to kill 100% of the wild type Marchantia plants (FIG. 11).
If no lethal concentration was observed, the highest concentration would be used in place of the lethal concentration provided that it caused the plants to show a phenotype distinct from the phenotype of untreated plants. For example, this alternative phenotype may be a strong reduction in growth (FIG. 12) or a marked change in the shape of the plants, or a change in plant pigmentation.
Marchantia polymorpha spores were irradiated with ultraviolet B irradiation and seven independent mutant lines resistant to the herbicide chlorsulfuron were identified. Chlorsulfuron resistance was determined by a Marchantia polymorpha plant that was alive two weeks following exposure to a lethal dose of Chlorsulfuron (0.1 ppm dose, i.e. a dose sufficient to kill 100% of wild-type plants).

Marchantia polymorpha = conditions: stated as known, like liverworts in general; cited from earlier work
[2] = 1000 μM herbicide, 14-day old sporelings in Petri dishes, three replicates

Structure (SMILES)	survival of sporelings [1, 2]	sensitivity of Marchantia polymorpha to the herbicide (Marchantia polymorpha)	growth of sporelings [1, 2]	lethal dose (dose sufficient to kill 100% of wild-type plants) ([1]; wild-type Marchantia polymorpha, two weeks following exposure)
CNc1cnn(-c2cccc(C(F)(F)F)c2)c(=O)c1Cl [Norflurazon]	have all died			
O=C(O)CNCP(=O)(O)O [glyphosate]		insensitive		
COc1nc(C)nc(NC(=O)NS(=O)(=O)c2ccccc2Cl)n1 [Chlorsulfuron]	have not all died		marked reduction in growth	0.1 ppm
CP(=O)(O)CCC(N)C(=O)O (stereo not drawn) [glufosinate]		insensitive		
